Source: PubChem BioAssay AID549 (SRMLSC, 2006)
Active and inactive are the calls of the source.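 The calls were made as follows: active = clearly stronger inhibition of phosphomevalonate kinase than of the coupling enzymes alone in a parallel counterscreen; inactive = the rest.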

Assays:
[1] = molecular target: phosphomevalonate kinase (Streptococcus pneumoniae D39); test: S. pneumoniae PMK inhibitor potency, dose response, biochemical, mevalonate pathway, coupling enzyme counter-screen (AID 549); settings: PK/LDH coupled NADH absorbance 340 nm
[2] = as above; settings: PK/LDH coupled NADH absorbance 340 nm, measured here: coupling enzymes counter-screen (hexokinase)

Row | Structure (SMILES) | IC50 [1] | IC50 [2] [µM] | outcome [1]
1 | CCOC(=O)N1C(=O)c2cc(OC)ccc2S1(=O)=O | inactive | 18.6 | –
2 | CCOC(=O)c1cc2c(=O)n3cccc(C)c3nc2n(CCCOC)c1=NC(=O)c1cccnc1 | inactive | 13.6 | –
3 | O=c1c2ccccc2[se]n1-c1ccccc1 | inactive | 73.1 | –
4 | COc1cccc(OC)c1-c1nn2c(-c3cc(-c4ccccc4)n[nH]3)nnc2s1 | inactive | 42.7 | –
5 | CCOC(=O)C1=C(C)NC(=O)NC1c1c(C)nn(-c2ccccc2)c1Cl (configuration not stated) | inactive | 3.54 | –
6 | COc1cc(-c2nnc(COc3ccc4ccccc4c3)o2)cc(OC)c1OC | – | – | inactive
7 | O=C(O)CCS(=O)(=O)Cc1ccccc1F | – | – | inactive
8 | COc1ccc(OC)c(NC(=O)CNC(=O)Cn2ccc3ccccc3c2=O)c1 | – | – | inactive
9 | O=C(CN(C(=O)CNS(=O)(=O)c1ccccc1)C1CCCC1)NCc1ccco1 | – | – | inactive
10 | COc1ccc(OC)c(CNC(=O)C2CCCN(c3nc4ccccc4o3)C2)c1 (configuration not stated) | – | – | inactive
11 | CC(=O)c1ccc(N2CCN(c3ccc(C(F)(F)F)cn3)CC2)cc1 | – | – | inactive
12 | CCOC(=O)c1cnc(SCC(=O)N2CCN(C(=O)c3ccco3)CC2)nc1N | – | – | inactive
13 | O=C(C1CCN(Cc2ccc(OCc3ccccc3)cc2)CC1)N1CCCC1 | – | – | inactive
14 | Cc1csc(NC(=O)CN2CCCCCC2)n1 | – | – | inactive
15 | O=c1cc(O)c2c(=O)[nH]c(=O)n(-c3ccccc3)c2[nH]1 | – | – | inactive
16 | O=C(Nc1ccc(-c2noc(COc3ccccc3Cl)n2)cc1)c1ccco1 | – | – | inactive
17 | COc1ccc(OCC(=O)N2CCN(c3nnc(-c4ccccc4)c4ccccc34)CC2)cc1 | – | – | inactive
18 | COc1ccccc1CNC(=O)C1CCN(S(=O)(=O)N2CC(C)CC(C)C2)CC1 (configuration not stated) | – | – | inactive
19 | C[C@]12CC[C@@H]3c4ccc(OS(=O)(=O)O)cc4CC[C@H]3[C@@H]1CCC2=O | – | – | inactive
20 | COc1ccc(N2CCN(C(c3ccco3)c3sc4nc(C)nn4c3O)CC2)cc1 (configuration not stated) | – | – | inactive
21 | CC(C)OC(=O)c1cccnc1SCc1cc(=O)n2ccccc2n1 | – | – | inactive
22 | CCOCCCNC(=O)C1CCN(S(=O)(=O)N2CC(C)CC(C)C2)CC1 (configuration not stated) | – | – | inactive
23 | O=C(NCc1ccccc1)C1C2C=CC3(CN(Cc4cccnc4)C(=O)C13)O2 (configuration not stated) | – | – | inactive
24 | COc1ccc(S(=O)(=O)Nc2nnc(C)s2)cc1 | – | – | inactive
25 | N=c1n(CCN2CCOCC2)c2ccccc2n1CC(=O)c1ccc(Cl)c(Cl)c1 | – | – | inactive

Row | Structure (SMILES) | IC50 [1] | IC50 [2] [µM] | outcome [1]
26 | O=C(Cn1cc(C(F)(F)F)ccc1=O)N1CCN(S(=O)(=O)c2ccccc2)CC1 | – | – | inactive
27 | COc1ccc(N2CCN(CCNS(=O)(=O)c3cccc4nsnc34)CC2)cc1 | – | – | inactive
28 | CCOC(=O)CCn1c2nc(C)cc(C)c2c(=O)n1-c1ccccc1 | – | – | inactive
29 | CCOC(=O)c1ccccc1NCN1C(=O)CSC1=O | – | – | inactive
30 | O=C(CCSc1nc(-c2ccc3c(c2)OCO3)cc(C(F)(F)F)n1)NCc1ccco1 | – | – | inactive
31 | Cc1onc(-c2c(Cl)cccc2Cl)c1C(=O)Nc1ccc2c(c1)OCO2 | – | – | inactive
32 | CCS(=O)(=O)N1CCC(C(=O)NCc2ccco2)CC1 | – | – | inactive
33 | CCOC(=O)C(CCc1nnc(N)s1)C(=O)OCC | – | – | inactive
34 | Cc1nc(SC2C=CS(=O)(=O)C2)n[nH]1 (configuration not stated) | – | – | inactive
35 | COc1ccc(-n2c(SCc3nnc(-c4ccccc4)o3)nnc2-c2ccccc2)cc1 | – | – | inactive
36 | CC1(C)CC(=O)c2cc(OCC(=O)N3CCN(c4ccccc4F)CC3)ccc2O1 | – | – | inactive
37 | O=C(CCN1C(=O)c2ccccc2C1=O)NC1=NCCS1 | – | – | inactive
38 | CC(C)COC(=O)n1ccc(C(=O)N2CCCCC2)n1 | – | – | inactive
39 | CCOC(=O)c1c(NC(=O)c2cc(C3CC3)on2)sc2c1CCCC2 | – | – | inactive
40 | COc1ccc(C(=O)Nc2ccncc2)cc1OC | – | – | inactive
41 | COc1ccc(C2C3=C(OC(C)=O)c4ccccc4C3=Nc3c2c(=O)n(C)c(=O)n3C)cc1 (configuration not stated) | – | – | inactive
42 | CC(=O)NC1N=C(C)N(c2ccccc2)C1=O (configuration not stated) | – | – | inactive
43 | COCC(=O)N(C)c1nnc(-c2cnc(C)cn2)s1 | – | – | inactive
44 | COc1ccc(C(c2nnnn2CC2CCCO2)N2CCN(c3ccccc3)CC2)cc1 (configuration not stated) | – | – | inactive
45 | CCS(=O)(=O)N1CCC(C(=O)NCCc2ccccc2)CC1 | – | – | inactive
46 | c1ccc2sc(SCc3ccc(-c4nnco4)cc3)nc2c1 | – | – | inactive
47 | CS(=O)(=O)N1CCN(C(=O)CCC2CCCC2)CC1 | – | – | inactive
48 | COc1ccc(-c2cc3nc(C)c(CCC(=O)N4CCCCC4)c(C)n3n2)c(OC)c1 | – | – | inactive
49 | OC1CCCN(Cc2ccc3c(c2)Cc2ccccc2-3)C1 (configuration not stated) | – | – | inactive
50 | CCOC(=O)C1CCCN(C(=O)C2CCCN(S(C)(=O)=O)C2)C1 (configuration not stated) | – | – | inactive

Row | Structure (SMILES) | IC50 [1] | IC50 [2] [µM] | outcome [1]
51 | CCOC(=O)CC(=O)CSc1nnc2c(n1)[nH]c1ccccc12 | – | – | inactive
52 | N#CC(C(=O)NC1CCCCC1)c1nc2ccccc2nc1N1CCCCC1 (configuration not stated) | – | – | inactive
53 | COc1ccc(C2C(=O)N(C3CCCCC3)CC(=O)N2CCc2ccccc2)cc1OC (configuration not stated) | – | – | inactive
54 | Cc1ccc(-n2nc3c(c2NC(=O)c2c(-c4ccccc4Cl)noc2C)CS(=O)(=O)C3)c(C)c1 | – | – | inactive
55 | CC(=O)Nc1c(O)n(C)c2ccccc12 | – | – | inactive
56 | O=C(c1cccnc1)N1CCc2ccccc2C1 | – | – | inactive
57 | COc1cc2nc(C3CCC3)n(NC(=O)C3CCCC(OC)C3)c(=O)c2cc1OC (configuration not stated) | – | – | inactive
58 | Cn1c2ccccc2c2cnn(CC(=O)N3CCN(c4ncccn4)CC3)c(=O)c21 | – | – | inactive
59 | COC(=O)c1ccccc1S(=O)(=O)N(Cc1cc2ccc(OC)cc2[nH]c1=O)CC1CCCO1 (configuration not stated) | – | – | inactive
60 | O=C(COC(=O)CCc1c[nH]c(=O)[nH]1)Nc1ccccc1 | – | – | inactive
61 | CCN(CC)C(=O)NC1CC2CCCC(C1)N2Cc1ccccc1 (configuration not stated) | – | – | inactive
62 | O=C(NCC1CCCO1)C1CC(=O)N(C2CCCCCC2)C1 (configuration not stated) | – | – | inactive
63 | Cc1n[nH]c(C)c1N1C(=O)c2cccc3c(N4CCCCCC4)ccc(c23)C1=O | – | – | inactive
64 | CN(C)c1ccc(CNCCC2(O)CCOC(C)(C)C2)cc1 (configuration not stated) | – | – | inactive
65 | CN1CCc2c(sc3c2c(=O)n(-c2ccccc2)c2nnc(SCc4ccc(F)cc4)n32)C1 | – | – | inactive
66 | COc1ccc2[nH]cc(C(=O)CN3CCCC(C)C3)c2c1 (configuration not stated) | – | – | inactive
67 | Cc1ccc(-c2nnn(CC(=O)N(CC(=O)NCC3CCCO3)c3ccc(F)c(Cl)c3)n2)o1 (configuration not stated) | – | – | inactive
68 | O=C(CSCc1cccc(F)c1)N1CCN(c2ccccc2)CC1 | – | – | inactive
69 | C=CCn1c(NCc2ccccc2)nc2ccccc21 | – | – | inactive
70 | CS(=O)(=O)N1CCCC(C(=O)NCc2cccs2)C1 (configuration not stated) | – | – | inactive
71 | Cc1cc(C)cc(CC2CC(=O)N(c3nc(C)cc(C)n3)C2=O)c1 (configuration not stated) | – | – | inactive
72 | O=C(c1ccc(CS(=O)(=O)Cc2ccc(Cl)cc2)o1)N1CCCC1 | – | – | inactive
73 | OCCNCC1(O)C2CC3CC(C2)CC1C3 (configuration not stated) | – | – | inactive
74 | O=C(CSc1nnc(COc2ccccc2)n1-c1ccccc1)c1cccs1 | – | – | inactive
75 | COC(=O)[C@@H](NC(=O)N1CCN(c2cccc(C(F)(F)F)c2)CC1)C(C)C | – | – | inactive

Row | Structure (SMILES) | IC50 [1] | IC50 [2] [µM] | outcome [1]
76 | COCCNC(=O)c1ccc2c(c1)NC(=O)CS2 | – | – | inactive
77 | CCC(C)(C)n1nnnc1C(c1cccnc1)N1CCCc2ccccc21 (configuration not stated) | – | – | inactive
78 | COc1ccc(NC(=O)N(C2CCCCC2)C(C)c2ccco2)c(OC)c1 (configuration not stated) | – | – | inactive
79 | COCCNC(=O)C(c1ccc(C)o1)N(Cc1ccc(OC)cc1)C(=O)Cn1nnc2ccccc21 (configuration not stated) | – | – | inactive
80 | Cc1ccc(Cl)cc1N1CCN(Cc2nnnn2C2CCCCC2)CC1 | – | – | inactive
81 | CNS(=O)(=O)c1cccc(C(=O)OC2CCCCC2=O)c1 (configuration not stated) | – | – | inactive
82 | OC1(CN2CCOCC2)C2CN3CCN(C2)CC1(c1ccccc1)C3 (configuration not stated) | – | – | inactive
83 | CCOC(=O)N1CCC(NC(=O)CCc2cn(C)c3ccccc23)CC1 | – | – | inactive
84 | COc1cc(OC)nc(NC(=O)NS(=O)(=O)c2ccc(OC(F)(F)F)cc2)n1 | – | – | inactive
85 | COc1ccccc1C(c1nnnn1C(C)(C)C)N1CCN(Cc2ccncc2)CC1 (configuration not stated) | – | – | inactive
86 | O=C(NCc1cccs1)C1CCCN(c2nc3ccccc3o2)C1 (configuration not stated) | – | – | inactive
87 | CCCN(C(=O)c1ccccc1N)c1c(C)n(C)n(-c2ccccc2)c1=O | – | – | inactive
88 | O=C(NC1CCCCC1)C1CC(=O)N(c2ccc(Cl)cc2)C1 (configuration not stated) | – | – | inactive
89 | O=C(NC1CC1)c1ccc2c(c1)ncn2C1CCCC1 | – | – | inactive
90 | CCN(CC)CCSc1nc(O)c(C(C)C)c(=O)[nH]1 | – | – | inactive
91 | CC(=O)c1ccc(Oc2ncnc3sccc23)c(CN2CCOCC2)c1 | – | – | inactive
92 | CCOCCCNC(=O)C1CCN(S(=O)(=O)CC)CC1 | – | – | inactive
93 | O=c1oc2ccccc2n1CCn1c2ccccc2c2nc3ccccc3nc21 | – | – | inactive
94 | CCCN1CCN(CCCNC(=O)Cn2nc(-c3ccccc3)ccc2=O)CC1 | – | – | inactive
95 | Cc1cc2c(C(F)(F)F)cc(=O)oc2c2c1NCCC2 | – | – | inactive
96 | COc1cccc(OC)c1OCC(O)CN1CCN(c2ccccc2)CC1 (configuration not stated) | – | – | inactive
97 | O=S(=O)(Nc1ccc(S(=O)(=O)N2CCOCC2)cc1)c1ccccc1 | – | – | inactive
